Earlier results as cited in publication PMC6234229, “The role of loops B and C in determining the potentiation of GABAA receptors by midazolam” (Pharmacology Research & Perspectives, 2018).

Columns and labels:
α3β1γ2 receptors = test system: α3β1γ2 receptors; parameters: method as in PMID 1646944, PMID 8381510; conditions: cited from earlier work
[1] = test system: α6‐containing GABAA receptors; conditions: cited from earlier work

SMILES: CN1C(=O)CN=C(c2ccccc2)c2cc(Cl)ccc21 [diazepam]
- potentiation of α3β1γ2 vs α1β1γ2 receptors (α3β1γ2 receptors): potentiated α3β1γ2 receptors more than α1β1γ2 receptors

SMILES: CC#CCOC(=O)c1c(C)nc2sc3c(c2c1N)CCC(O)C3 (stereo not drawn) [SB‐205384]
- potentiation of α6‐ vs α3‐containing GABAA receptors [1]: potentiate α6‐containing GABAA receptors even more strongly than α3

SMILES: CN1C(=O)CN=C(c2ccccc2F)c2cc([N+](=O)[O-])ccc21 [flunitrazepam]
- potentiation of α3β1γ2 vs α1β1γ2 receptors (α3β1γ2 receptors): potentiated α3β1γ2 receptors more than α1β1γ2 receptors
